pIC50: −log10 of the molar value.
Experiments:
[1] = tested on: K562 (human chronic myelogenous leukemia) cells; experiment: Cell Titer Glo 2.0 cell viability assay; type: cell-based; conditions: Homo sapiens, K562, 72 h, K562 cells, 72 hours, Cell Titer Glo 2.0; read-out: K562 GI50
Description: Compounds described herein were screened for toxicity in K562 (human chronic myelogenous leukemia) cells using a Cell Titer Glo 2.0 assay.
Cells were plated at 500 cells/well (K562 cells) in 45 μL of IMDM supplemented with 1000 FBS in a 384-well opaque plate. Wells containing only medium were used as a blank control. Test compounds (e.g., compounds ofFormula (I), (II), (III), (IV), (V), (VI), (VII), (VIII), and (IX)) were first serially diluted in DMSO then diluted 1:100 with IMDM+10% FBS. The final concentration of DMSO was 0.1% in each well. The cells were incubated for 72 hours at 37° C. and 500 CO2 before assaying with Cell Titer Glo 2.0 reagent.

SMN2 mRNA = experiment: RT-qPCR splicing assay, SMN2 canonical junction (CJ) mRNA; type: cell-based, human; conditions: Homo sapiens; Table 5 panel; canonical junction qPCR; compound concentration having 50% response in CJ decrease; read-out: SMN2 IC50 (decrease in CJ mRNA levels)
Summary of the method: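 A673 cells (DMEM/10% FBS) or K562 cells (IMDM/10% FBS) were treated 24 h at 37° C. with 11-point 3-fold dilutions (top 10 uM, ≤0.25% DMSO). Canonical-junction mRNA was quantified in lysates by RT-qPCR, normalized to GAPDH, GUSB or PPIA.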

MYB = experiment: HiBiT protein abundance assay, MYB HiBiT K562 cell line; type: cell-based, human; conditions: HiBiT K562 cell line, 24 hours, top dose 10 μM; read-out: Effect on protein abundance, MYB (IC50 category)
Summary of the method: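 Endogenous targets in K562 knock-in lines carried a HiBiT tag and were treated for 24 h at 37 °C with 10-point 3-fold dilutions (top 10 μM final, DMSO ≤0.25%). Abundance was read as lytic Nano-Glo HiBiT luminescence. IC50 came from a four-parameter logistic fit of normalized response.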

Row | Structure (SMILES) | GI50 [1] [nM] | pIC50 (SMN2 mRNA) | pIC50 (MYB)
1 | Cc1cn2nc(-c3ccc4c(=O)n(C5CCN(C)CC5)ccc4c3)cc(C)c2n1 [Compound 310] | 1000 to 10000 | > 7.00 | 6.00 to 7.00
2 | CCN1CCC(N2CCc3cc(-c4cc(C)c5nc(C)cn5n4)ccc3C2=O)CC1 [Compound 270] | 1000 to 10000 | 6.00 to 7.00 | 6.00 to 7.00
3 | Cc1cn2nc(-c3ccc4c(c3)CCN(C3CCN(C)CC3)C4=O)cc(C)c2n1 [Compound 268] | 1000 to 10000 | > 7.00 | 6.00 to 7.00
4 | Cc1cn2nc(-c3ccc4c(=O)n(C5CCNC6(CC6)C5)ncc4c3)cc(C)c2n1 (stereo not drawn) [Compound 274] | 100 to 1000 | > 7.00 | > 7.00
5 | Cc1cn2nc(-c3ccc4c(c3)CCN(C3CCN(C)C3)C4=O)cc(C)c2n1 (stereo not drawn) [Compound 282] | > 10000 | 5.00 to 6.00 | 5.00 to 6.00
6 | Cc1cn2nc(-c3ccc4c(=O)n(C5CCN(C)CC5)cnc4c3)nc2c(C)n1 [Compound 288, 7-{6,8-dimethyl-[1,2,4]triazolo[1,5-a]pyrazin-2-yl}1-3-(1-methylpiperidin-4-yl)quinazolin-4-one] | 1000 to 10000 | 5.00 to 6.00 | 5.00 to 6.00
7 | Cc1nc2c(F)cc(-c3ccc4c(=O)n(C5CCN(C)CC5)cnc4c3)cc2o1 [Compound 300] | 1000 to 10000 | > 7.00 | 6.00 to 7.00
8 | Cc1cn2nc(-c3ccc4c(=O)n([C@@H]5CCN[C@H](C)C5)ncc4c3)cc(C)c2n1 [Compound 272] | 100 to 1000 | > 7.00 | 6.00 to 7.00
9 | Cc1cn2cc(-c3ccc4c(=O)n(C5CCNCC5)cnc4c3)ncc2n1 [Compound 297] | 1000 to 10000 | > 7.00 | 6.00 to 7.00
10 | Cc1cn2nc(-c3ccc4c(=O)n([C@@H]5CCN(C)[C@H](C)C5)ncc4c3)cc(C)c2n1 [Compound 277] | 1000 to 10000 | > 7.00 | 6.00 to 7.00
11 | Cc1cn2nc(-c3ccc4c(=O)n(C5CCNC(C)(C)C5)ncc4c3)cc(C)c2n1 (stereo not drawn) [Compound 279] | 1000 to 10000 | > 7.00 | 6.00 to 7.00
12 | CC[C@@H]1C[C@H](n2ncc3cc(-c4cc(C)c5nc(C)cn5n4)ccc3c2=O)CCN1 [Compound 304] | 100 to 1000 | > 7.00 | 6.00 to 7.00
13 | Cc1cn2nc(-c3ccc4c(c3)CCN([C@@H]3CCN[C@H](C)C3)C4=O)cc(C)c2n1 [Compound 281] | 1000 to 10000 | 6.00 to 7.00 | 6.00 to 7.00
14 | Cc1cn2nc(-c3ccc4c(=O)n(C5CCN(C)C5)ncc4c3)cc(C)c2n1 (stereo not drawn) [Compound 271] | 1000 to 10000 | 6.00 to 7.00 | 5.00 to 6.00
15 | Cc1cn2nc(-c3ccc4c(=O)n(C5CCN(C)CC5)cnc4c3)cc2c(C)n1 [Compound 303] | 1000 to 10000 | 6.00 to 7.00 | 5.00 to 6.00
16 | CNc1cc(-c2cc(C)c3nc(C)cn3n2)cc2ncn(C3CCNCC3)c(=O)c12 [Compound 359, 7-{2,8-dimethylimidazo[1,2-b]pyridazin-6-yl}-5-(methylamino)-3-(piperidin-4-yl)quinazolin-4-one] | 100 to 1000 | > 7.00 | 6.00 to 7.00
17 | Cc1cn2nc(-c3ccc4c(=O)n([C@@H]5C[C@H]6CC[C@@H](C5)N6)ncc4c3)cc(C)c2n1 [Compound 280] | 1000 to 10000 | > 7.00 | 6.00 to 7.00

Continued, values first:

Row | GI50 [1] [nM] | pIC50 (SMN2 mRNA) | pIC50 (MYB) | Structure (SMILES)
18 | 1000 to 10000 | 6.00 to 7.00 | 5.00 to 6.00 | CNc1cc(-c2cc(F)c3nc(C)cn3c2)cc2ncn(C3CCNCC3)c(=O)c12 [Compound 358, 7-{8-fluoro-2-methylimidazo[1,2-a]pyridine-6-yl}-5-(methylamino)-3-(piperidin-4-yl)quinazolin-4-one]
19 | 100 to 1000 | > 7.00 | 5.00 to 6.00 | Cc1cn2cc(-c3ccc4c(=O)n(C5CCNCC5)cnc4c3)cc(C(F)(F)F)c2n1 [Compound 306]
20 | 100 to 1000 | > 7.00 | > 7.00 | Cc1cc(-c2cc(F)c3c(=O)n(C4CCNC5(CC5)C4)cnc3c2)nc2cn(C)nc12 (stereo not drawn) [Compound 361, 3-{4-azaspiro[2.5]octan-7-yl}-7-{2,7-dimethylpyrazolo[4,3-b]pyridin-5-yl}-5-fluoroquinazolin-4-one]
21 | < 100 | > 7.00 | > 7.00 | Cc1cn2nc(-c3cc(F)c4c(=O)n([C@H]5CCNC6(CC6)C5)cnc4c3)cc(C)c2n1 (single isomer, unassigned) [Compound 357]
22 | 100 to 1000 | > 7.00 | > 7.00 | Cc1cn2nc(-c3cc(F)c4c(=O)n([C@@H]5CCNC6(CC6)C5)cnc4c3)cc(C)c2n1 [Compound 356]
23 | > 10000 | 6.00 to 7.00 | < 5.00 | Cc1cn2cc(-c3cc(F)c4c(=O)n(C5CCNCC5(F)F)cnc4c3)cc(F)c2n1 (stereo not drawn) [Compound 339]
24 | 1000 to 10000 | 5.00 to 6.00 | < 5.00 | CNc1cc(-c2cn3cc(C)nc3c(C)n2)cc2ncn(C3CCNCC3)c(=O)c12 [Compound 360, 7-{2,8-dimethylimidazo[1,2-a]pyrazine-6-yl}-5-(methylamino)-3-(piperidin-4-yl)quinazolin-4-one]
25 | > 10000 | < 5.00 | 5.00 to 6.00 | Cc1cn2cc(-c3cc(F)c4c(=O)n([C@H]5CCNC[C@@H]5O)cnc4c3)cc(F)c2n1 [Compound 347, 5-fluoro-7-{8-fluoro-2-methylimidazo[1,2-a]pyridin-6-yl}-3-[(3S,4S)-3-hydroxypiperidin-4-yl]quinazolin-4-one]
26 | 100 to 1000 | > 7.00 | 5.00 to 6.00 | Cc1cn2cc(-c3ccc4c(=O)n([C@@H]5CCN[C@H](C)C5)cnc4c3)cc(F)c2n1 [Compound 295]
27 | 100 to 1000 | > 7.00 | > 7.00 | Cc1cn2cc(-c3cc(F)c4c(=O)n([C@H]5CCN[C@H](C)C5)cnc4c3)cc(F)c2n1 [Compound 346, trans-5-fluoro-7-(8-fluoro-2-methylimidazo[1,2-a]pyridin-6-yl)-3-(2-methylpiperidin-4-yl)quina-zolin-4(3H)-one]
28 | 100 to 1000 | > 7.00 | > 7.00 | Cn1cc2cc(-c3cc(F)c4c(=O)n(C5CCNCC5)cnc4c3)cc(C#N)c2n1 [Compound 316]
29 | 100 to 1000 | > 7.00 | 6.00 to 7.00 | Cc1cn2cc(-c3ccc4c(=O)n(C5CCNCC5)cnc4c3)cc(C)c2n1 [Compound 292]
30 | 100 to 1000 | > 7.00 | > 7.00 | Cc1cn2nc(-c3cc(F)c4c(=O)n(C5CCNC6(CC6)C5)cnc4c3)cc(C)c2n1 (stereo not drawn) [Compound 351]
31 | 100 to 1000 | > 7.00 | 6.00 to 7.00 | Cc1cn2cc(-c3ccc4c(=O)n([C@H]5CCN[C@H](C)C5)cnc4c3)cc(F)c2n1 [Compound 296]
32 | 100 to 1000 | > 7.00 | 6.00 to 7.00 | Cc1cn2cc(-c3cc(F)c4c(=O)n([C@H]5CCNC[C@@H]5F)cnc4c3)cc(F)c2n1 (relative stereo) [Compound 341, 5-fluoro-7-(8-fluoro-2-methylimidazo[1,2-a]pyridin-6-yl)-3-(trans-3-fluoropiperidin-4-yl)quinazolin-4(3H)-one]
33 | 100 to 1000 | > 7.00 | 6.00 to 7.00 | Cc1nc2c(F)cc(-c3ccc4c(=O)n(C5CCNCC5)cnc4c3)cc2s1 [Compound 285]
34 | 1000 to 10000 | 6.00 to 7.00 | 5.00 to 6.00 | Cc1cn2nc(-c3cc(O)c4c(=O)n(C5CCNC5)cnc4c3)cc(C)c2n1 (stereo not drawn) [Compound 362, 7-{2,8-dimethylimidazo[1,2-b]pyridazin-6-yl}-5-hydroxy-3-(pyrrolidin-3-yl)quinazolin-4-one]
35 | 100 to 1000 | > 7.00 | 6.00 to 7.00 | Cc1cn2cc(-c3cc(F)c4c(=O)n(C5CCNCC5)cnc4c3)nc2c(C)n1 [Compound 319]
